Key:
[1] = system: ISG gene expression induced by MSA-2 in human THP1-Blue-ISG cells; assay: Inhibition of MSA-2-induced ISG gene expression in human THP1-Blue-ISG cells (Quanti-Blue, OD650); type: cell-based; settings: STING agonist MSA-2 10 µM, incubated for 24 hours
Experimental: 10 µL of compound diluted with PBS/physiological saline was added to each well of a 96 well cell culture plate. The STING agonist was MSA-2, which was added to the counted cell suspension at a final concentration of 10 µM. For the control group without compounds, 10 µL of PBS/physiological saline containing 2% DMSO was added. 3 replicate wells were set in each group. THP1-Blue-ISG cells were counted and adjusted to a cell concentration of 4× 10^5/mL, and 190 µL of cells containing STING agonist were added to each well for incubation. Therefore, the final volume of each test well was 200 µL, the content of DMSO was 0.1%, and the final concentration of the compound tested was 10/3.3/1.1/0.4/0.13/0.04/0.013/0.004 µM, incubated for 24 hours. In addition, 190 µL of cells without STING agonist and 10 µL of physiological saline containing 2% DMSO were added to the blank group. 3 replicate wells were set in each group.
After 24 hours, 20 µL of culture medium was taken from each well and transferred to a new 96 well plate. 180 µL of chromogenic solution Quanti-Blue was added. The plate was placed in a 37 °C incubator. After 2 hours, the OD650 values were measured.
Result analysis: Inhibition rate (%) = (Con(OD650)−Treated(OD650))/Con(OD650) × 100% [formula]
(§1) The IC50 calculation of inhibitors was implemented using the Graphpad Prism 8 software's calculation method log (inhibitor) vs. response - Variable slope (four parameters), with a constrain interval of 0-100.

[2] = system: DMXAA induced ISG gene expression in mouse RAW-Lucia cells; assay: Inhibition of DMXAA-induced ISG gene expression in mouse RAW-Lucia cells (QUANTI-Luc); type: cell-based; settings: STING agonist DMXAA 50 µM, incubated for 24 hours
Experimental: 10 µL of compound diluted with PBS/physiological saline was added to each well of a 96 well cell culture plate. The STING agonist was DMXAA, which was added to the counted cell suspension at a final concentration of 50 µM. For the control group without compounds, 10 µL of PBS/physiological saline containing 2% DMSO was added. 3 replicate wells were set in each group. RAW-Lucia cells were counted and adjusted to a cell concentration of 4×10^5/mL, and […] of cells were added to each well for incubation. Therefore, the final volume of each test well was 200 µL, the content of DMSO was 0.1%, and the final concentration of the compound tested was 10/3.3/1.1/0.4/0.13/0.04/0.013/0.004 µM. The final concentration of STING agonist DMXAA was 50 µM. The mixture was incubated for 24 hours. In addition, 200 µL of culture medium was added to the blank group. 3 replicate wells were set in each group.
After 24 hours, 20 µL of culture medium was taken from each well and transferred to a new 96 well plate with photopermeable bottom. 50 µL of the luciferase detection reagent QUANTI-Luc™ was added, and the […] was immediately measured (avoid light).
Result analysis: Inhibition rate (%) = (Con(Lum)−Treated(Lum))/Con(Lum) × 100% [formula]
as §1

IC50 [1] [nM] | IC50 [2] [nM] | Compound
32 | 6.8 | CC1(C)C(=O)N(CC2CN(c3cc(F)cc(C(F)(F)F)c3)C2)c2cc(C(=O)Nc3c[nH]c4ccccc34)ccc21 [Example I-17]
> 10000 | > 1000 | CC1(C)C(=O)N(Cc2ccsc2)c2cc(NC(=O)c3c[nH]c4ccccc34)ccc21 [B, reference compound]
56 | 80 | O=C(Nc1c[nH]c2ccccc12)c1ccc2c(c1)N(Cc1ccsc1)C(=O)CS2 [Example I-55, N-(1H-indol-3-yl)-3-oxo-4-(thien-3-ylmethyl)-3,4-dihydro-2H-benzothien[b][1,4]thiazin-6-carboxamide]
296 | 16 | CC1(C)C(=O)N(CC2CN(c3ccsc3)C2)c2cc(C(=O)Nc3c[nH]c4ccccc34)ccc21 [Example I-20, N-(1H-indol-3-yl)-3,3-dimethyl-2-oxo-1-((1-(thien-3-yl)azetidin-3-yl)methyl)indolin-6-carboxamide]
392 | 33 | O=C(Nc1c[nH]c2ccccc12)c1cc2c(s1)SCC(=O)N2Cc1ccccc1 [Example I-6, 1-benzyl-N-(1H-indol-3-yl)-2-oxo-2,3-dihydro-1H-thieno[2,3-b][1,4]thiazin-6-carboxamide]
2300 | 161 | O=C(Nc1ccc2c(c1)N(Cc1ccccc1)C(=O)CS2)Nc1c[nH]c2ccccc12 [A, reference compound]
121 | 38 | O=C(Nc1c[nH]c2ccccc12)c1ccc2c(c1)N(CC1CC1)C(=O)CS2 [Example I-62, 4-(cyclopropylmethyl)-N-(1H-indol-3-yl)-3-oxo-3,4-dihydro-2H-benzo[b][1,4]thiazin-6-carboxamide]
1540 | 188 | CC1(C)C(=O)N(Cc2ccccc2)c2cc(NC(=O)c3c[nH]c4ccccc34)ccc21 [C, reference compound]
235 | 2.24 | CC1(C)C(=O)N(Cc2ccccc2)c2cc(C(=O)Nc3c[nH]c4ccccc34)ccc21 [Example I-76, 1-benzyl-N-(1H-indol-3-yl)-3,3-dimethyl-2-oxoindolin-6-carboxamide]
626 | 24 | CC1(C)C(=O)N(Cc2ccco2)c2cc(C(=O)Nc3c[nH]c4ccccc34)ccc21 [Example I-80, 1-(furan-2-ylmethyl)-N-(1H-indol-3-yl)-3,3-dimethyl-2-oxoindolin-6-carboxamide]
56 | 19 | CC1(C)C(=O)N(CC2CN(c3cc(Cl)cc(C(F)(F)F)c3)C2)c2cc(C(=O)Nc3c[nH]c4ccccc34)ccc21 [Example I-18]
132 | 61 | COc1cccc(N2CC(CN3C(=O)C(C)(C)c4ccc(C(=O)Nc5c[nH]c6ccccc56)cc43)C2)c1 [Example I-15, N-(1H-indol-3-yl)-1-((1-3-methoxyphenylazetidin-3-yl)methyl)-3,3-dimethyl-2-oxoindolin-6-carboxamide]

From patent publication EP4748844A1, “AZETIDINE COMPOUND AND MEDICAL USE THEREOF” (SHANGHAI INSTITUTE OF MATERIA MEDICA, CHINESE ACADEMY OF …, priority 2023, dated 2025)
